According to article PMC10230504, “Versatile Chemo-Biocatalytic Cascade Driven by a Thermophilic and Irreversible C–C Bond-Forming α-Oxoamine Synthase” (ACS Sustainable Chemistry & Engineering, 2023):

Biological target: T1, ThAOS (Thermus thermophilus, UniProt Q5SHZ8)
T1 construct: gene TTHA1582; recombinant, codon-optimized clone (GenScript), expressed in E. coli BL21 (DE3), purified
T1 sequence (Q5SHZ8 2-395): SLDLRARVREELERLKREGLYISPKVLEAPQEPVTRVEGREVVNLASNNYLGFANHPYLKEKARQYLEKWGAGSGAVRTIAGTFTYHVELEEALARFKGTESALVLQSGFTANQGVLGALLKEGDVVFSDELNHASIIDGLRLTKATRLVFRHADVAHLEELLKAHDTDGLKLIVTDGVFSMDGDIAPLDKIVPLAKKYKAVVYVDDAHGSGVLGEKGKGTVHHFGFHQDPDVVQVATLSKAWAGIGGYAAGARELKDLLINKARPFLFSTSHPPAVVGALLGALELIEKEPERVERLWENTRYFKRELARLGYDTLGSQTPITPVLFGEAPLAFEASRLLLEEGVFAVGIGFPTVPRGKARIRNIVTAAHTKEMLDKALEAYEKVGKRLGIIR
Test: DTNB assay of CoASH release; product confirmed by mass spectrometry
Type: biochemical
Settings: co-substrate acyl-CoA; 50 °C

NCC(=O)O [Gly]
DTNB assay of CoASH release; product confirmed by mass spectrometry: ThAOS was active with AAs (S)-2-aminobutyric acid (L-Aba), L-Ala, Gly and L-Ser
